Series [1] has as its system Septoria tritici. Nature of the series: In vivo preventive test on Septoria tritici (leaf spot on wheat). Conditions: Zymoseptoria tritici, 456 h; 500 ppm of active ingredient; wheat plants sprayed 24 hours before inoculation; evaluated 19 days after inoculation; read-out: efficacy. The procedure: (§1) Solvent: 5% by volume of Dimethyl sulfoxide • 10% by volume of Acetone
(§2) Emulsifier: 1 μl of Tween® 80 per mg of active ingredient
(§3) The active ingredients were made soluble and homogenized in a mixture of Dimethyl sulfoxide/Acetone/Tween® 80 and then diluted in water to the desired concentration.
The young plants of wheat were treated by spraying the active ingredient prepared as described above. Control plants were treated only with an aqueous solution of Acetone/Dimethyl sulfoxide/Tween® 80.
After 24 hours, the plants were contaminated by spraying the leaves with an aqueous suspension of Septoria tritici spores. The contaminated wheat plants were incubated for 72 hours at 17° C. and at 100% relative humidity and then for 15 days at 20° C. and at 90% relative humidity.
The test was evaluated 19 days after the inoculation. 0% means an efficacy which corresponds to that of the control plants while an efficacy of 100% means that no disease was observed.

A short description of series [2]: Log P by HPLC on reversed phase columns (EEC directive 79/831 Annex V.A8). It is filed as physicochemical. How it is done:
Measurement of Log P values was performed according to EEC directive 79/831 Annex V.A8 by HPLC (High Performance Liquid Chromatography) on reversed phase columns with the following methods: • ^[a]Log P value is determined by measurement of LC-UV, in an acidic range, with 0.1% formic acid in water and acetonitrile as eluent (linear gradient from 10% acetonitrile to 95% acetonitrile). • ^[b]Log P value is determined by measurement of LC-UV, in a neutral range, with 0.001 molar ammonium acetate solution in water and acetonitrile as eluent (linear gradient from 10% acetonitrile to 95% acetonitrile). • ^[c]Log P value is determined by measurement of LC-UV, in an acidic range, with 0.1% phosphoric acid and acetonitrile as eluent (linear gradient from 10% acetonitrile to 95% acetonitrile).
If more than one Log P value is available within the same method, all the values are given and separated by “+”.
Calibration was done with straight-chain alkan2-ones (with 3 to 16 carbon atoms) with known Log P values (measurement of Log P values using retention times with linear interpolation between successive alkanones). Lambda-max-values were determined using UV-spectra from 200 nm to 400 nm and the peak values of the chromatographic signals.

For series [3], the system named is Uromyces appendiculatus. Nature of the series: In vivo preventive test on Uromyces appendiculatus (bean rust). The following applies: 264 h, 500 ppm of active ingredient, bean plants sprayed 24 hours before inoculation, evaluated 11 days after inoculation, read-out: efficacy. The procedure: as §1, §2, §3
The young plants of bean were treated by spraying the active ingredient prepared as described above. Control plants were treated only with an aqueous solution of Acetone/Dimethyl sulfoxide/Tween® 80.
After 24 hours, the plants were contaminated by spraying the leaves with an aqueous suspension of Uromyces appendiculatus spores. The contaminated bean plants were incubated for 24 hours at 20° C. and at 100% relative humidity and then for 10 days at 20° C. and at 70-80% relative humidity.
The test was evaluated 11 days after the inoculation. 0% means an efficacy which corresponds to that of the control plants while an efficacy of 100% means that no disease was observed.

The subject of series [4] is Sphaerotheca fuliginea. As to the kind of experiment: In vivo preventive test on Sphaerotheca fuliginea (powdery mildew on cucurbits). The following applies: Podosphaera fuliginea, 192 h; 500 ppm of active ingredient; gherkin plants sprayed 24 hours before inoculation; evaluated 8 days after inoculation; read-out: efficacy. How it is done:
as §1, §2, §3
The young plants of gherkin were treated by spraying the active ingredient prepared as described above. Control plants were treated only with an aqueous solution of Acetone/Dimethyl sulfoxide/Tween® 80.
After 24 hours, the plants were contaminated by spraying the leaves with an aqueous suspension of Sphaerotheca fuliginea spores. The contaminated gherkin plants were incubated for 8 days at 20° C. and at 70-80% relative humidity.
The test was evaluated 8 days after the inoculation. 0% means an efficacy which corresponds to that of the control plants while an efficacy of 100% means that no disease was observed.

Where [5] appears, read: method [a]: LC-UV, acidic range, 0.1% formic acid in water and acetonitrile as eluent.

Data on 37 compounds can be found in patent US11213031B2, “Tetrazolylpropyl derivatives and their use as fungicides” (BAYER AKTIENGESELLSCHAFT, priority 2017, dated 2022).

Where two headings read alike, the source gives them in different places.

For the compound `C=C(c1ccccc1F)C(O)(Cn1cnnn1)C1(Cl)CC1` (centres unmarked) [Ia-en-02, 2-(1-chlorocyclopropyl)-3-(2-fluorophenyl)-1-(tetrazol-1-yl)but-3-en-2-ol], the pest or weed control at 500 ppm in series [1], in series [3] and in series [4] was 90 to 100% in each case. Also, the chromatographic logP (usually a lipophilicity value derived from retention on a column) in series [2] (setting [5]) was 2.46. `CC(c1ccccc1F)C(O)(Cn1cnnn1)C1(Cl)CC1` (single isomer, unassigned) [Ia-20, 2-(1-chlorocyclopropyl)-3-(2-fluorophenyl)-1-(tetrazol-1-yl)butan-2-ol] gave a chromatographic logP in series [2] (setting [5]) of 2.61. Besides, the pest or weed control at 500 ppm in series [3] and in series [4] was 90 to 100% in each case. For the compound `OC(Cc1ccccc1F)(Cn1ncnn1)C1(Cl)CC1` (centres unmarked) [Ib-02, 2-(1-chlorocyclopropyl)-1-(2-fluorophenyl)-3-(tetrazol-2-yl)propan-2-ol], the pest or weed control at 500 ppm in series [1], in series [3] and in series [4] was 90 to 100% in each case. The chromatographic logP in series [2] (setting [5]) amounted to 2.86.

On to `OC(Cc1ccccc1)(Cn1cnnn1)C1(Cl)CC1` (centres unmarked) [Ia-01, 2-(1-chlorocyclopropyl)-1-phenyl-3-(tetrazol-1-yl)propan-2-ol], for which the pest or weed control at 500 ppm in series [1] fell in the range of 70 to 79%; in series [3] it was 90 to 100%; in series [4] it was 90 to 100%. Further, the chromatographic logP in series [2] (setting [5]) is 2.41. As to `OC(Cc1ccccc1F)(Cn1cnnn1)C1(Cl)CC1` (centres unmarked) [Ia-04, 2-(1-chlorocyclopropyl)-1-(2-fluorophenyl)-3-(tetrazol-1-yl)propan-2-ol], the pest or weed control at 500 ppm in series [1], in series [3] and in series [4] was 90 to 100% throughout. In series [2] (setting [5]), the chromatographic logP was 2.46. As for `CC(c1ccccc1F)C(O)(Cn1cnnn1)C1(Cl)CC1` (single isomer, unassigned) [Ia-22, 2-(1-chlorocyclopropyl)-3-(2-fluorophenyl)-1-(tetrazol-1-yl)butan-2-ol], the pest or weed control at 500 ppm in series [1] fell in the range of 90 to 100%. Besides, the LogP in series [2] (setting [5]) is 2.80^[a]. As to `OC(Cc1cccnc1Cl)(Cn1cnnn1)C1(Cl)CC1` (centres unmarked) [Ia-03, 2-(1-chlorocyclopropyl)-1-(2-chloro-3-pyridyl)-3-(tetrazol-1-yl)propan-2-ol], the pest or weed control at 500 ppm in series [1], in series [3] and in series [4] was 90 to 100% throughout. For the same compound, the chromatographic logP in series [2] (setting [5]) came to 1.72; in series [2] (method [b]: LC-UV, neutral range, 0.001 molar ammonium acetate solution in water and acetonitrile as eluent), 1.68. Take `OC(Cc1ccccc1Cl)(Cn1cnnn1)C1(Cl)CC1` (centres unmarked) [Ia-05, 2-(1-chlorocyclopropyl)-1-(2-chlorophenyl)-3-(tetrazol-1-yl)propan-2-ol]: the pest or weed control at 500 ppm in series [1], in series [3] and in series [4] was 90 to 100% each time. Besides, the chromatographic logP in series [2] (setting [5]) is 2.65. `OC(Cc1cccnc1Cl)(Cn1ncnn1)C1(Cl)CC1` (centres unmarked) [Ib-05, 2-(1-chlorocyclopropyl)-1-(2-chloro-3-pyridyl)-3-(tetrazol-2-yl)propan-2-ol]: the figures for the pest or weed control at 500 ppm in series [1], in series [3] and in series [4] were 90 to 100%, 70 to 79% and 90 to 100%, respectively. This compound also returned a chromatographic logP in series [2] (setting [5]) of 2.03. Take `OC(Cc1cncc(Cl)c1)(Cn1cnnn1)C1(Cl)CC1` (centres unmarked) [Ia-74]: in series [2], the LogP is 1.86^[a]. As for `COc1cccc(CC(O)(Cn2cnnn2)C2(F)CC2)c1` (centres unmarked) [Ia-26], the LogP in series [2] was 2.11^[a]. On the same count and under the same terms, then `CC(c1cc(F)ccc1F)C(O)(Cn1cnnn1)C1(Cl)CC1` (single isomer, unassigned) [Ia-16], with 2.66^[a]; and `OC(Cc1cc(F)cc(F)c1)(Cn1cnnn1)C1(Cl)CC1` (centres unmarked) [Ia-31], with 2.63^[a]. As for `Cc1cccc(CC(O)(Cn2cnnn2)C2(C)CC2)c1` (centres unmarked) [Ia-65], the LogP in series [2] is 2.73^[a]. The same measure, in the same setting: in the case of `Cc1ccc(CC(O)(Cn2cnnn2)C2(C)CC2)cc1` (centres unmarked) [Ia-30] it was 2.73^[a]. Same read-out and setting: then `OC(Cc1cccc(Br)c1)(Cn1cnnn1)C1(Cl)CC1` (centres unmarked) [Ia-62], with 2.92^[a]; and `Cc1ccc(CC(O)(Cn2cnnn2)C2(Cl)CC2)c(F)c1F` (centres unmarked) [Ia-55], with 2.92^[a]. Still for that read-out and setting: in the case of `OC(Cc1cccc(Cl)c1)(Cn1cnnn1)C1(Cl)CC1` (centres unmarked) [Ia-47] it was 2.82^[a]; in that of `OC(Cc1cccnc1F)(Cn1ncnn1)C1(Cl)CC1` (centres unmarked) [Ib-25], 1.91^[a].

Consider `CC1(C(O)(Cc2ccccc2)Cn2cnnn2)CC1` (centres unmarked) [Ia-10], for which the LogP in series [2] is 2.35^[a]. As to `CC1(C(=O)Cn2ncnn2)CC1` [XVIb-02], the LogP in series [2] is 1.05^[a]. Still for that read-out and setting: in the case of `OC(Cc1ccc(Br)cc1F)(Cn1cnnn1)C1(Cl)CC1` (centres unmarked) [Ia-67] it was 3.23^[a]. The same measure, in the same setting: in the case of `OC(Cc1ccccc1Cl)(Cn1cnnn1)C1(F)CC1` (centres unmarked) [Ia-19] it was 2.40^[a].

For the compound `CC1(C(O)(Cc2ccccc2C(F)(F)F)Cn2cnnn2)CC1` (centres unmarked) [Ia-11], the LogP in series [2] is 2.94^[a].

For the compound `COc1ccc(F)c(CC(O)(Cn2ncnn2)C2(Cl)CC2)c1F` (centres unmarked) [Ib-20], the LogP in series [2] is 2.86^[a]. Turning to `OC(Cc1ccc(F)c(F)c1)(Cn1ncnn1)C1(Cl)CC1` (centres unmarked) [Ib-24], the LogP in series [2] was 3.04^[a].

For the compound `OC(Cc1c(F)ccc(F)c1F)(Cn1ncnn1)C1(Cl)CC1` (centres unmarked) [Ib-19], in series [2], the LogP was 3.02^[a].

With `COc1ccccc1CC(O)(Cn1cnnn1)C1(Cl)CC1` (centres unmarked) [Ia-14], in series [2], the LogP is 2.73^[a].

In the case of `OC(Cc1cncc(F)c1)(Cn1ncnn1)C1(Cl)CC1` (centres unmarked) [Ib-23], the LogP in series [2] was 1.76^[a]. Consider `C=C(c1cccc(Cl)c1F)C(O)(Cn1cnnn1)C1(Cl)CC1` (centres unmarked) [Ia-en-10], for which the LogP in series [2] is 2.82^[a].

With `OC(Cc1cccc(Br)c1F)(Cn1cnnn1)C1(Cl)CC1` (centres unmarked) [Ia-41], in series [2], the LogP was 2.92^[a].

For `OC(Cc1cccc(C(F)(F)F)c1F)(Cn1cnnn1)C1(Cl)CC1` (centres unmarked) [Ia-71], the LogP in series [2] is 3.04^[a]. Still for that read-out and setting: then `OC(Cc1cccc(Cl)c1Cl)(Cn1cnnn1)C1(Cl)CC1` (centres unmarked) [Ia-15], with 3.19^[a]; and `Cc1cccc(CC(O)(Cn2cnnn2)C2(Cl)CC2)c1` (centres unmarked) [Ia-64], with 2.78^[a].

In the case of `OC(Cc1cc(F)ccc1F)(Cn1cnnn1)C1(Cl)CC1` (centres unmarked) [Ia-42], in series [2], the LogP was 2.52^[a]. In the case of `OC(Cc1c(F)cc(F)cc1F)(Cn1cnnn1)C1(Cl)CC1` (centres unmarked) [Ia-35], the LogP in series [2] is 2.64^[a]. In the case of `OC(Cc1ccc(F)c(Cl)c1F)(Cn1ncnn1)C1(Cl)CC1` (centres unmarked) [Ib-12], in series [2], the LogP was 3.37^[a].
